Here are results for six compounds from US3954726A, “Double salts of S-adenosil-L-methionine” (Bioresearch Limited, priority 1973, dated 1976).

Counter-ions that a name gives are not always drawn. Like-named read-outs stand apart in the source and are kept apart here.

For data set [1] the following is noted: dry state.
Description: (§1) The figures refer to the percentage of SAM residue after the times indicated:
Data set [2] is described as follows: Acute toxicity (DL50) in the mouse. As to conditions: in vivo. The source says:
In particular, the DL50 in the mouse is greater than 6 g/kg/os and 2.5 g/kg/i.p.

Data set [3] in a line: Toxicity, overall statement. Particulars: in vivo.
Data set [4] can be described thus: Clinical: Parkinsons disease and Parkinsonisms, in association with Levodopa. It counts as in vivo, human. As to conditions: Levodopa alone.
Data set [5] in a line: Hepatic phospholipids in rats after intoxication with CCl4. It counts as in vivo, rat. As to conditions: CCl4 + Ad-Met 15 mg/kg/i.p.; average ± E.S. of 10 values. An excerpt: This was confirmed by successive pharmacological tests. […] Hepatic phospholipids in rats after intoxication with CCl4 and treatment with SAM.
Data set [6] can be described thus: Stability with time at 45°C, dry state (percentage of SAM residue). As to conditions: same conditions as Table 1.
Description: as §1

Regarding `C[S+](CC[C@H](N)C(=O)O)C[C@H]1O[C@@H](n2cnc3c(N)ncnc32)[C@H](O)[C@@H]1O` (stereo partly drawn) [Sulphate], the “percentage of SAM residue” value in data set [1] (720 h) is listed as 50%; in data set [1] (1440 h), 5%. Regarding `C[S+](CC[C@H](N)C(=O)O)C[C@H]1O[C@@H](n2cnc3c(N)ncnc32)[C@H](O)[C@@H]1O` (stereo partly drawn) [SAM salt], the LD50 was above 2500 mg/kg in data set [2] (ip) and above 6000 mg/kg in data set [2] (po, os). Moreover, the toxicity result in data set [3] is reported as “absolutely free from acute toxicity, chronic toxicity, local intolerance or secondary effects”. As for `N[C@@H](Cc1ccc(O)c(O)c1)C(=O)O` [Levodopa, reference compound], the Parkinson tremor result in data set [4] is “cannot be modified”.

As to `C[S+](CC[C@H](N)C(=O)[O-])C[C@H]1O[C@@H](n2cnc3c(N)ncnc32)[C@H](O)[C@@H]1O` (stereo partly drawn) [Ad-Met, reference compound], the Total phospholipids in data set [5] worked out at 19.9 ± 0.92 mg/g.

In the case of `C[S+](CC[C@H](N)C(=O)O)C[C@H]1O[C@@H](n2cnc3c(N)ncnc32)[C@H](O)[C@@H]1O.Cc1ccc(S(=O)(=O)O)cc1.O=S(=O)(O)O.O=S(=O)([O-])O` (stereo partly drawn) [di-sulphate mono-p.toluenesulphonate], the “stability values compared with di-sulphate di-p.toluenesulphonate” value in data set [6] is listed as “completely equivalent”.

Regarding `C[S+](CC[C@H](N)C(=O)O)C[C@H]1O[C@@H](n2cnc3c(N)ncnc32)[C@H](O)[C@@H]1O` (stereo partly drawn) [Chloride], the “percentage of SAM residue” value in data set [1] (720 h) was 20%.

Broadly, the LD50 is the dose at which mortality reaches 50%.
